pIC50: −log10 of the molar value.
Legend:
[1] = molecular target: T1, CDK2/CycE (Homo sapiens, UniProt P24941); experiment: CDK2/CycE kinase assay (TR-FRET, 2 mM ATP); assay type: biochemical; details: 2 mM ATP (high ATP); median; read-out: CDK2/CyclinE, 2 mM ATP (high ATP), IC50 (median)
T1 construct: purchased ProQinase GmbH (Freiburg, Germany); host or cells: insect cells (Sf9)
Summary of the method: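 Biotin-peptide phosphorylation (0.75 µM substrate, 2 mM ATP final, 25 min, 22 °C) by Sf9-expressed GST-CDK2/GST-CycE, after a 15-min compound pre-binding step. Inhibition scaled between enzyme-free (100%) and uninhibited (0%) wells.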

[2] = molecular target: T2, CDK9/CycT1 (Homo sapiens, UniProt P50750); experiment: CDK9/CycT1 high ATP kinase assay (TR-FRET, 2 mM ATP); assay type: biochemical; details: 2 mM ATP (high ATP); median; read-out: CDK9/CyclinT1, 2 mM ATP (high ATP), IC50 (median)
T2 construct: Recombinant full-length His-tagged human CDK9 and CycT1; purchased Life Technologies PV4131; host or cells: insect cells
T2 sequence (P50750 whole entry): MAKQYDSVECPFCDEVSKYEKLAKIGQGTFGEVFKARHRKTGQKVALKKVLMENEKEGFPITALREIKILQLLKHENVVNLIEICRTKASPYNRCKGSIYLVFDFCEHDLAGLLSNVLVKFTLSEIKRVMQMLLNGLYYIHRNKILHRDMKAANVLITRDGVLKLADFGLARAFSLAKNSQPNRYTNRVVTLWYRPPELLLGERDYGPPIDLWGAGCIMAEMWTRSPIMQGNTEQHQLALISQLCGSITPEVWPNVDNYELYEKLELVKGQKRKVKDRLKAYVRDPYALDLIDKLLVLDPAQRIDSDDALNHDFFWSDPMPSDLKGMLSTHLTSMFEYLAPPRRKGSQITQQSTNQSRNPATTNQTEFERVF
T2 sequence (O60563 whole entry partner): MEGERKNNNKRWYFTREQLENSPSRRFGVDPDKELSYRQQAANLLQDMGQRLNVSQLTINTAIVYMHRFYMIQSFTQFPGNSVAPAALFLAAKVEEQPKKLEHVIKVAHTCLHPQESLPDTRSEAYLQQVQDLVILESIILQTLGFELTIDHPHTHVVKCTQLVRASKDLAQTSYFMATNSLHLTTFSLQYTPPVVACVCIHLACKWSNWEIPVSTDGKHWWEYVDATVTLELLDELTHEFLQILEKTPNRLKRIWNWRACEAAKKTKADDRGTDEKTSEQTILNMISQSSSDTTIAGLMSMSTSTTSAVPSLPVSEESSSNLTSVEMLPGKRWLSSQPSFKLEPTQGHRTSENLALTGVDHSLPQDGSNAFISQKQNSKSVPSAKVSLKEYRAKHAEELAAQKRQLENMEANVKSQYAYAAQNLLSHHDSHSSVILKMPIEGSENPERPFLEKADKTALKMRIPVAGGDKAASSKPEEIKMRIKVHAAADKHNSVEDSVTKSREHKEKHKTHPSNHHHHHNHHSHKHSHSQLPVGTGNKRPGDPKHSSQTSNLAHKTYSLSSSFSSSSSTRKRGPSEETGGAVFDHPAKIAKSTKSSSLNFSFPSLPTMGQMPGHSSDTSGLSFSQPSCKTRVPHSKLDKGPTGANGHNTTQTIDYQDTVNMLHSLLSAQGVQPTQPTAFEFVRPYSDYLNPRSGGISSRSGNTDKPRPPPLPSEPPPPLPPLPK
Summary of the method: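 Full-length His-tagged human CDK9/CycT1 (insect cell, ~0.5 μg/mL) preincubated 15 min at 22 °C with compound in Tris pH 8.0, MgCl2, DTT buffer before reaction with biotinylated peptide substrate at high ATP (2 mM).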

[3] = molecular target: T3, CDK12 (nuclear staining in CAL-120 cells) (Homo sapiens, UniProt Q9NYV4); experiment: CDK12 nuclear protein level: immunofluorescence/high content analysis (CAL-120); assay type: cell-based; details: for DC50: CAL-120 cells, 24 h, immunofluorescence, 50% reduction of nuclear CDK12 staining intensity, median, read-out: CDK12 degradation IF, DC50- [mol/l] (median); for (IC50 CDK12 high ATP) to (Degradation DC50 CDK12) ratio: ratio of IC50 CDK12 high ATP kinase assay to DC50 CDK12 degradation (IF, CAL-120)
T3 construct: endogenous in cells; host or cells: CAL-120 human breast cancer cells (DSMZ ACC 459)
T3 sequence (Q9NYV4 whole entry): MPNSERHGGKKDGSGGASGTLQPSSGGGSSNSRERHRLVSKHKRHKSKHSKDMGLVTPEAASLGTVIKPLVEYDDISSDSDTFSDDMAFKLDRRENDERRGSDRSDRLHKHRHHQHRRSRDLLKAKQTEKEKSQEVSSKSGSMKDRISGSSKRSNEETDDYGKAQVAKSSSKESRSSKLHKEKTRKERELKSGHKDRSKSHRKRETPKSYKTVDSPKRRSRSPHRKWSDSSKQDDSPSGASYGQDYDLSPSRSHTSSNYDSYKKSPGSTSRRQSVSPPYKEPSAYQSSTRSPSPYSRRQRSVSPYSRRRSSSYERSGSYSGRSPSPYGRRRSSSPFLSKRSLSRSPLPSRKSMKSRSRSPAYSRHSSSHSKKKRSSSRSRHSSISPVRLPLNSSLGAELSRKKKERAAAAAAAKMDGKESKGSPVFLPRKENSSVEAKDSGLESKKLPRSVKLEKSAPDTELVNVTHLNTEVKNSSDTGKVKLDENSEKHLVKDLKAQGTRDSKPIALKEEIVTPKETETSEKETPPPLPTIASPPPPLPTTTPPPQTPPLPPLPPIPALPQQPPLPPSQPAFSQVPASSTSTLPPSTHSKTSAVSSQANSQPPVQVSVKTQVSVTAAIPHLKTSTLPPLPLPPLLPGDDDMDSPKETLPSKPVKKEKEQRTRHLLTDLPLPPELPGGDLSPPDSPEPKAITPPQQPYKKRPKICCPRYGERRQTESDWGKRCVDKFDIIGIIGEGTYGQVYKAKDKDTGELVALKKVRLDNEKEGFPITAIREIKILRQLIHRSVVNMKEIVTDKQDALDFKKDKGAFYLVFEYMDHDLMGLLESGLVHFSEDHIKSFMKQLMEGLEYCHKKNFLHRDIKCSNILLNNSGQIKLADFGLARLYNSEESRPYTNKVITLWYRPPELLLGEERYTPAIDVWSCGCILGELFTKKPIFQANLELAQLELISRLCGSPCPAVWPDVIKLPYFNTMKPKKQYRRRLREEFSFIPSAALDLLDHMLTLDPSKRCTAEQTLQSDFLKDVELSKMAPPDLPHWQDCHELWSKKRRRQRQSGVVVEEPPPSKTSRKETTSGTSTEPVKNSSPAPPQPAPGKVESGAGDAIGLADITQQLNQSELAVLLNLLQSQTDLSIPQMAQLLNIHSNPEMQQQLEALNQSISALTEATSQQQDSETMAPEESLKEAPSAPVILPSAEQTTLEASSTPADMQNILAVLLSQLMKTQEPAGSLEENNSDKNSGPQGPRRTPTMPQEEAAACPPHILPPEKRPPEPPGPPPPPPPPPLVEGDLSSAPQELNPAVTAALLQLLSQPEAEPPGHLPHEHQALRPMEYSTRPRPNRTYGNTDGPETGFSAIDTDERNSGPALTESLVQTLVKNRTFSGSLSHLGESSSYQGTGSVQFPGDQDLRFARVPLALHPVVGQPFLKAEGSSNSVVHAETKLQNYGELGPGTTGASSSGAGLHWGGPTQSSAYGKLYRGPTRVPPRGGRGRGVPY
T3 sequence (O75909 whole entry partner): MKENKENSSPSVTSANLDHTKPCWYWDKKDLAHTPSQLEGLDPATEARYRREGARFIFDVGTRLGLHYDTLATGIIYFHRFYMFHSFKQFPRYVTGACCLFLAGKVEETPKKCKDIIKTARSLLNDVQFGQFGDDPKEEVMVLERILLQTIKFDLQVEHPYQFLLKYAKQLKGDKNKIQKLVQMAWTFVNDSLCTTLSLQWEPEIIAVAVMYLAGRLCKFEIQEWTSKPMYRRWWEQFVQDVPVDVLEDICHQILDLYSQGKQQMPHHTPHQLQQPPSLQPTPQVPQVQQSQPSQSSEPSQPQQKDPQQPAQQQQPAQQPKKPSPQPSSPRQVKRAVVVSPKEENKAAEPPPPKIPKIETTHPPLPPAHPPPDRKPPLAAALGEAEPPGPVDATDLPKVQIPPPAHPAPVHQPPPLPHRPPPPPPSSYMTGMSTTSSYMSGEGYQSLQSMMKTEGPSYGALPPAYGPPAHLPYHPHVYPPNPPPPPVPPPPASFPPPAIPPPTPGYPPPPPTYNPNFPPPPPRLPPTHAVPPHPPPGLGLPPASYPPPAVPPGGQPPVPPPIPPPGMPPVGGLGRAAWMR
Summary of the method: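 DC50 is the degrader concentration that halves nuclear CDK12 immunofluorescence relative to controls, measured by high-content imaging. CAL-120 cells were exposed to compound for 24 h at 37 °C before PFA fixation, and signal was normalized to DMSO and control wells.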

Row | SMILES | pIC50 [1] | pIC50 [2] | DC50 [3] | (IC50 CDK12 high ATP) to (Degradation DC50 CDK12) ratio [3]
1 | FC(F)(F)c1cnn2c(NCc3nc4cc(Cl)c(Cl)cc4[nH]3)nc(N3CCOCC3)nc12 [Example 332, N-[(5,6-dichloro-1H-benzimidazol-2-yl)methyl]-2-(morpholin-4-yl)-8-(trifluoromethyl)pyrazolo[1,5-a][1,3,5]triazin-4-amine] | < 4.70 | < 4.70 | 0.0107 µM | 18
2 | Clc1cc2nc(CNc3nc(N4CC5CCC(C4)N5)nc4c(Br)cnn34)[nH]c2cc1Cl [Example 334, 8-bromo-2-(3,8-diazabicyclo[3.2.1]octan-3-yl)-N-[(5,6-dichloro-1H-benzimidazol-2-yl)methyl]pyrazolo[1,5-a][1,3,5]triazin-4-amine] | 4.98 | 5.09 | 0.0335 µM | 60
3 | FC(F)(F)c1ccc2[nH]c(CNc3nc(N4CCOCC4)nc4c(C5CC5)cnn34)nc2c1 [Example 322, 8-cyclopropyl-2-(morpholin-4-yl)-N-{[5-(trifluoromethyl)-1H-benzimidazol-2-yl]methyl}pyrazolo[1,5-a][1,3,5]triazin-4-amine] | < 4.70 | < 4.70 | 0.00457 µM | 266
4 | CN1CCCN(c2nc(NCc3nc4ccccc4[nH]3)n3ncc(Br)c3n2)CC1 [Example 390, N-[(1H-benzimidazol-2-yl)methyl]-8-bromo-2-(4-methyl-1,4-diazepan-1-yl)pyrazolo[1,5-a][1,3,5]triazin-4-amine] | < 4.70 | < 4.70 | 0.0192 µM | >1041
5 | C[C@H]1CN(C)CCN1c1nc(NCc2nc3c(F)cccc3[nH]2)n2ncc(C(F)(F)F)c2n1 [Example 388, 2-[(2S)-2,4-dimethylpiperazin-1-yl]-N-[(4-fluoro-1H-benzimidazol-2-yl)methyl]-8-(trifluoromethyl)pyrazolo[1,5-a][1,3,5]triazin-4-amine] | < 4.70 | < 4.70 | 0.0104 µM | 655
6 | FC(F)(F)c1ccc2[nH]c(CNc3nc(N4CC5CCC(C4)N5)nc4c(Br)cnn34)nc2c1 [Example 354, 8-bromo-2-(3,8-diazabicyclo[3.2.1]octan-3-yl)-N-{[5-(trifluoromethyl)-1H-benzimidazol-2-yl]methyl}pyrazolo[1,5-a][1,3,5]triazin-4-amine] |  | < 4.70 | 0.0713 µM | 52
7 | Fc1ccc2[nH]c(CNc3nc(N4CC5CCC(C4)N5)nc4c(Cl)cnn34)nc2c1F.O=CO [Example 360, formic acid 8-chloro-2-(3,8-diazabicyclo[3.2.1]octan-3-yl)-N-[(4,5-difluoro-1H-benzimidazol-2-yl)methyl]pyrazolo[1,5-a][1,3,5]triazin-4-amine] | 4.92 |  | 0.00645 µM | 622

Further lines, results first:

Row | pIC50 [1] | pIC50 [2] | DC50 [3] | (IC50 CDK12 high ATP) to (Degradation DC50 CDK12) ratio [3] | SMILES
8 | 4.92 | < 4.70 | 0.00306 µM | 780 | CN(CC(C)(C)O)c1nc(NCc2nc3cc(F)c(F)cc3[nH]2)n2ncc(C3CC3)c2n1 [Example 319, 1-[(8-cyclopropyl-4-{[(5,6-difluoro-1H-benzimidazol-2-yl)methyl]amino}pyrazolo[1,5-a][1,3,5]triazin-2-yl)(methyl)amino]-2-methylpropan-2-ol]
9 | 4.77 | < 4.70 | 0.0202 µM | 252 | CN1CCN(c2nc(NCc3nc4cc(OC(F)(F)F)ccc4[nH]3)n3ncc(Br)c3n2)CC1 [Example 377, 8-bromo-2-(4-methylpiperazin-1-yl)-N-{[5-(trifluoromethoxy)-1H-benzimidazol-2-yl]methyl}pyrazolo[1,5-a][1,3,5]triazin-4-amine]
10 | 5.09 | 4.90 | 0.0291 µM | 15 | CN(CC(C)(C)O)c1nc(NCc2nc3cc(OC(F)(F)F)ccc3[nH]2)n2ncc(Br)c2n1 [Example 378, 1-{[8-bromo-4-({[5-(trifluoromethoxy)-1H-benzimidazol-2-yl]methyl}amino)pyrazolo[1,5-a][1,3,5]triazin-2-yl](methyl)amino}-2-methylpropan-2-ol]
11 | 5.44 | 5.41 | 0.00244 µM | 110 | Fc1c(Cl)ccc2[nH]c(CNc3nc(N4CCOCC4)nc4c(Br)cnn34)nc12 [Example 372, 8-bromo-N-[(5-chloro-4-fluoro-1H-benzimidazol-2-yl)methyl]-2-(morpholin-4-yl)pyrazolo[1,5-a][1,3,5]triazin-4-amine]
12 | 5.22 | 5.20 | 0.00398 µM | 166 | CN(CC(C)(C)O)c1nc(NCc2nc3cc(C(F)(F)F)ccc3[nH]2)n2ncc(Br)c2n1 [Example 345, 1-{[8-bromo-4-({[5-(trifluoromethyl)-1H-benzimidazol-2-yl]methyl}amino)pyrazolo[1,5-a][1,3,5]triazin-2-yl](methyl)amino}-2-methylpropan-2-ol]
13 | 5.68 | 5.06 | 0.0584 µM | 55 | CCNc1nc(NCc2nc(-c3ccc(C)cc3)c[nH]2)n2ncc(Br)c2n1 [Example 26, 8-bromo-N^2-ethyl-N^4-{[4-(4-methylphenyl)-1H-imidazol-2-yl]methyl}pyrazolo[1,5-a][1,3,5]triazine-2,4-diamine]
14 | 5.53 | < 4.70 | 0.00212 µM | 3129 | Cc1cc2nc(CNc3nc(N4CCN(C)CC4)nc4c(Br)cnn34)[nH]c2cc1C [Example 342, 8-bromo-N-[(5,6-dimethyl-1H-benzimidazol-2-yl)methyl]-2-(4-methylpiperazin-1-yl)pyrazolo[1,5-a][1,3,5]triazin-4-amine]
15 | 5.02 | 4.86 | 0.00738 µM | 73 | Clc1cc2nc(CNc3nc(N4CCOCC4)nc4c(Br)cnn34)[nH]c2cc1Cl [Example 329, 8-bromo-N-[(5,6-dichloro-1H-benzimidazol-2-yl)methyl]-2-(morpholin-4-yl)pyrazolo[1,5-a][1,3,5]triazin-4-amine]
16 | 4.76 | < 4.70 | 0.0197 µM | 689 | CC(C)c1cnn2c(NCc3ncc(-c4ccccc4)[nH]3)nc(N3CCN(C)CC3)nc12 [Example 31, 2-(4-methylpiperazin-1-yl)-N-[(5-phenyl-1H-imidazol-2-yl)methyl]-8-(propan-2-yl)pyrazolo[1,5-a][1,3,5]triazin-4-amine]
17 | 5.05 |  | 0.00308 µM | 256 | Fc1cc2nc(CNc3nc(N4CCOCC4)nc4c(Br)cnn34)[nH]c2cc1Cl [Example 336, 8-bromo-N-[(6-chloro-5-fluoro-1H-benzimidazol-2-yl)methyl]-2-(morpholin-4-yl)pyrazolo[1,5-a][1,3,5]triazin-4-amine]

From US20230117034A1, “PYRAZOLOTRIAZINES” (Bayer Aktiengesellschaft, priority 2019, published 2023)
